Test results: ChEMBL document CHEMBL1201862, “PubChem BioAssay data set” (2004)
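Cultured in 96-well plates, cells were exposed to test compound for 48 hours across five concentrations. GI50 = concentration required for 50% inhibition of growth.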 Calls of active or inactive are those of the source. Cut-off read from the data, not from the text of the source: active = GI50 up to about 1.1 µM and inactive = higher.

Tests used:
Assay in all cases: NCI-60 cell line screen, 48 h
A549 = system: A549
ACHN = system: ACHN
DU-145 = system: DU-145
HCT-116 = system: HCT-116
HT-29 = system: HT-29
LOX IMVI = system: LOX IMVI
MDA-MB-435 = system: MDA-MB-435
MOLT-4 = system: MOLT-4
Malme-3M = system: Malme-3M
NCI-H226 = system: NCI-H226
NCI-H23 = system: NCI-H23
OVCAR-5 = system: OVCAR-5
PC-3 = system: PC-3
RXF 393 = system: RXF 393
SF-268 = system: SF-268
T47D = system: T47D
UACC-257 = system: UACC-257
UO-31 = system: UO-31
HL-60 = system: HL-60
Hs-578T = system: Hs-578T

Measured: GI50

CC(C)OC(=O)/C=C/C(=O)O/C=C/[N+](=O)[O-]
inactive: A549 26.9 µM | ACHN > 100 µM | DU-145 30.4 µM | HCT-116 17.7 µM | HT-29 24.5 µM | LOX IMVI 17.5 µM | MDA-MB-435 38.9 µM | MOLT-4 15.9 µM | Malme-3M 29.6 µM | NCI-H226 39.9 µM | NCI-H23 26.7 µM | OVCAR-5 37.6 µM | PC-3 26.6 µM | RXF 393 18.3 µM | SF-268 24.5 µM | T47D 12.7 µM | UACC-257 19.9 µM | UO-31 36.1 µM

COc1cc(/C=C/C(=O)CC(=O)/C=C/c2ccc(OC(=O)CCCCC3CCSS3)c(OC)c2)ccc1OC(=O)CCCCC1CCSS1 (stereo unspecified)
inactive: A549 > 100 µM | ACHN > 100 µM | DU-145 > 100 µM | HCT-116 > 100 µM | HL-60 > 100 µM | HT-29 > 100 µM | Hs-578T > 100 µM | LOX IMVI > 100 µM | MDA-MB-435 > 100 µM | MOLT-4 > 100 µM | Malme-3M > 100 µM | NCI-H226 > 100 µM | NCI-H23 > 100 µM | OVCAR-5 > 100 µM | PC-3 > 100 µM | RXF 393 > 100 µM | SF-268 > 100 µM | UACC-257 > 100 µM | UO-31 > 100 µM

C=Cc1nc2nnc(CCCCCCCCc3nnc4nc(C=C)[nH]n34)n2[nH]1
inactive: A549 51.8 µM | ACHN > 100 µM | DU-145 > 100 µM | HCT-116 47.2 µM | HL-60 34 µM | HT-29 > 100 µM | LOX IMVI 93.5 µM | MDA-MB-435 > 100 µM | MOLT-4 47.4 µM | Malme-3M 58.7 µM | NCI-H226 > 100 µM | NCI-H23 67.8 µM | OVCAR-5 > 100 µM | PC-3 > 100 µM | RXF 393 > 100 µM | SF-268 > 100 µM | UACC-257 31.4 µM | UO-31 > 100 µM

O=C(O)c1nc2ccc(C(F)(F)F)cc2nc1Nc1ccc(F)cc1
inactive: ACHN 21.4 µM | DU-145 21.2 µM | HCT-116 15.1 µM | HL-60 12.6 µM | HT-29 28.1 µM | Hs-578T 36.4 µM | LOX IMVI 18.5 µM | MDA-MB-435 17.6 µM | MOLT-4 9.57 µM | Malme-3M 15.4 µM | NCI-H226 18.1 µM | NCI-H23 15.2 µM | OVCAR-5 28.4 µM | PC-3 15 µM | RXF 393 14.4 µM | SF-268 15.5 µM | UACC-257 22.3 µM | UO-31 12 µM

CCc1cc(Cc2cc(CC)c(NC(=O)C3=CC(=O)CC(c4ccc(OC)cc4)O3)c(CC)c2Cl)c(Cl)c(CC)c1NC(=O)C1=CC(=O)CC(c2ccc(OC)cc2)O1 (stereo unspecified)
inactive: A549 23.9 µM | ACHN 17.9 µM | HCT-116 16.7 µM | HL-60 23.2 µM | HT-29 20.2 µM | LOX IMVI 18.1 µM | MOLT-4 31.8 µM | Malme-3M 19.1 µM | NCI-H226 24.8 µM | NCI-H23 17.1 µM | OVCAR-5 20.7 µM | RXF 393 17.9 µM | SF-268 25.9 µM | UACC-257 16 µM | UO-31 16.5 µM

O=C1/C(=C/c2cccc(Cl)c2)CCCc2ccccc21
inactive: A549 26.5 µM | ACHN 16.1 µM | DU-145 19.2 µM | HCT-116 12.9 µM | HL-60 11.9 µM | HT-29 15.8 µM | Hs-578T 15.5 µM | LOX IMVI 17.8 µM | MDA-MB-435 16.2 µM | MOLT-4 15.2 µM | Malme-3M 19.1 µM | NCI-H226 16.1 µM | NCI-H23 16.1 µM | OVCAR-5 16.5 µM | PC-3 18.3 µM | SF-268 16.8 µM | UACC-257 19.1 µM | UO-31 16.1 µM

N#CC(/C(=N/NC(=O)C(=O)NN)C(=O)Nc1nc([N+](=O)[O-])cs1)c1ccc(Cl)cc1 (stereo unspecified)
inactive: A549 > 100 µM | ACHN > 100 µM | HCT-116 > 100 µM | HL-60 > 100 µM | HT-29 > 100 µM | LOX IMVI > 100 µM | MOLT-4 > 100 µM | Malme-3M > 100 µM | NCI-H226 > 100 µM | NCI-H23 > 100 µM | OVCAR-5 > 100 µM | RXF 393 > 100 µM | SF-268 > 100 µM | UACC-257 > 100 µM | UO-31 > 100 µM

CC(C)[Si](OC1=C(C(=O)N(C)c2ccccc2Cl)CCC1)(C(C)C)C(C)C
inactive: A549 15 µM | ACHN 19.9 µM | DU-145 22 µM | HCT-116 19.5 µM | HT-29 15.3 µM | LOX IMVI 19.2 µM | MDA-MB-435 19 µM | MOLT-4 30.3 µM | Malme-3M 19.1 µM | NCI-H226 21.1 µM | NCI-H23 15.7 µM | OVCAR-5 9.64 µM | RXF 393 18.3 µM | SF-268 18.5 µM | T47D 19.7 µM | UACC-257 19 µM | UO-31 15.8 µM

Cc1ccccc1NC(=O)C(=O)C(c1cnc2ccc([N+](=O)[O-])cc2n1)[N+](=O)[O-] (stereo unspecified)
inactive: A549 > 100 µM | ACHN > 100 µM | HCT-116 > 100 µM | HL-60 24.9 µM | HT-29 > 100 µM | LOX IMVI > 100 µM | MOLT-4 66.1 µM | Malme-3M > 100 µM | NCI-H226 > 100 µM | NCI-H23 > 100 µM | OVCAR-5 > 100 µM | RXF 393 > 100 µM | SF-268 > 100 µM | UACC-257 > 100 µM | UO-31 54 µM

NC(=O)c1cccc(C2OC(COP(=O)(O)O)C(O)C2O)c1 (stereo unspecified)
inactive: A549 > 50 µM | ACHN > 50 µM | HCT-116 > 50 µM | HL-60 20.7 µM | HT-29 > 50 µM | LOX IMVI > 50 µM | MOLT-4 10.9 µM | Malme-3M > 50 µM | NCI-H226 32.9 µM | NCI-H23 > 50 µM | OVCAR-5 > 50 µM | RXF 393 18.6 µM | SF-268 36.9 µM | UACC-257 > 50 µM | UO-31 26.1 µM

Cc1cc(Cc2cc(C)c(N)cc2N)c(N)cc1N
inactive: A549 > 100 µM | ACHN > 100 µM | DU-145 > 100 µM | HCT-116 > 100 µM | HL-60 > 100 µM | HT-29 > 100 µM | LOX IMVI 81.5 µM | MDA-MB-435 99.3 µM | MOLT-4 33.3 µM | NCI-H226 > 100 µM | NCI-H23 28.2 µM | OVCAR-5 > 100 µM | PC-3 > 100 µM | RXF 393 > 100 µM | SF-268 89.3 µM | T47D > 100 µM | UACC-257 > 100 µM | UO-31 > 100 µM

CCOC(=O)C(=O)Nc1nc2c(OCC)cccc2s1
inactive: A549 > 100 µM | ACHN > 100 µM | HCT-116 > 100 µM | HL-60 > 100 µM | HT-29 > 100 µM | LOX IMVI > 100 µM | MOLT-4 > 100 µM | Malme-3M > 100 µM | NCI-H226 > 100 µM | NCI-H23 > 100 µM | OVCAR-5 > 100 µM | RXF 393 > 100 µM | SF-268 > 100 µM | UACC-257 > 100 µM | UO-31 > 100 µM

CC[C@]1(Cc2ccc(OC)c(OC)c2)C2CC(C(=O)OC)ON2O[C@H](OCc2ccccc2)[C@@H]1OC(C)=O (stereo partly specified)
inactive: A549 > 100 µM | ACHN > 100 µM | DU-145 > 100 µM | HCT-116 > 100 µM | HL-60 26.1 µM | HT-29 > 100 µM | LOX IMVI > 100 µM | MDA-MB-435 > 100 µM | MOLT-4 > 100 µM | Malme-3M > 100 µM | NCI-H226 > 100 µM | NCI-H23 > 100 µM | OVCAR-5 > 100 µM | PC-3 > 100 µM | RXF 393 > 100 µM | T47D 47 µM | UACC-257 > 100 µM | UO-31 > 100 µM

CN(C(=O)C1=CCC2(CC1)OCCO2)c1ccccc1OS(=O)(=O)C(F)(F)F
inactive: A549 > 100 µM | ACHN > 100 µM | DU-145 > 100 µM | HCT-116 > 100 µM | HL-60 > 100 µM | LOX IMVI 59.7 µM | MDA-MB-435 > 100 µM | MOLT-4 > 100 µM | NCI-H226 16.2 µM | NCI-H23 > 100 µM | OVCAR-5 > 100 µM | PC-3 > 100 µM | RXF 393 > 100 µM | SF-268 8.26 µM | T47D > 100 µM | UACC-257 > 100 µM | UO-31 > 100 µM

CS(=O)(=O)CSCSSCS(C)(=O)=O
inactive: A549 > 100 µM | ACHN 40 µM | HCT-116 34.4 µM | HL-60 21.1 µM | HT-29 > 59.7 µM | LOX IMVI 13.6 µM | MOLT-4 25.5 µM | Malme-3M 38.7 µM | NCI-H226 > 100 µM | NCI-H23 35.5 µM | OVCAR-5 43.2 µM | RXF 393 17.1 µM | SF-268 26.2 µM | UACC-257 28.4 µM | UO-31 32.1 µM

O=C(c1ccccc1)C(c1ccccc1)C1(O)C(=O)Nc2ccccc21 (stereo unspecified)
inactive: A549 > 100 µM | ACHN > 100 µM | HCT-116 > 100 µM | HL-60 > 100 µM | HT-29 > 100 µM | LOX IMVI > 100 µM | MOLT-4 > 100 µM | Malme-3M > 100 µM | NCI-H226 > 100 µM | NCI-H23 > 100 µM | OVCAR-5 > 100 µM | RXF 393 > 100 µM | SF-268 > 100 µM | UACC-257 > 100 µM | UO-31 44.4 µM
